Test results reported in the supplement of paper PMC10307832.

What was measured:
Assay in all cases: relative viability (nuclei count vs DMSO), 5 days (fraction); higher = more cells survive
201T = test system: 201T
Summary of the method: (§1)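 A single step with final 0.05% Triton X-100, 1% formaldehyde and 1 ug/ml Hoechst fixed the cells and stained nuclei 5 days after treatment. Lung cancer cell lines in 1536-well plates had been treated by pin tool the day after seeding with one drug alone or a fixed anchor-drug dose plus five library-drug doses (not always all listed) in √10 steps, and nuclei were counted on 4× images. Relative viability is the ratio of nuclei in treated wells to nuclei in vehicle wells, taken as the median of duplicate plates.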

BEN = test system: BEN
Summary of the method: as §1

EMC-BAC-2 = test system: EMC-BAC-2
Summary of the method: as §1

HARA = test system: HARA
Summary of the method: as §1

HCC-44 = test system: HCC-44
Summary of the method: as §1

LCLC-103H = test system: LCLC-103H
Summary of the method: as §1

LOU-NH91 = test system: LOU-NH91
Summary of the method: as §1

NCI-H1395 = test system: NCI-H1395
Summary of the method: as §1

NCI-H1666 = test system: NCI-H1666
Summary of the method: as §1

NCI-H1993 = test system: NCI-H1993
Summary of the method: as §1

NCI-H2009 = test system: NCI-H2009
Summary of the method: as §1

NCI-H2023 = test system: NCI-H2023
Summary of the method: as §1

NCI-H2087 = test system: NCI-H2087
Summary of the method: as §1

NCI-H2126 = test system: NCI-H2126
Summary of the method: as §1

NCI-H2347 = test system: NCI-H2347
Summary of the method: as §1

NCI-H23 = test system: NCI-H23
Summary of the method: as §1

NCI-H3122 = test system: NCI-H3122
Summary of the method: as §1

NCI-H441 = test system: NCI-H441
Summary of the method: as §1

NCI-H596 = test system: NCI-H596
Summary of the method: as §1

NCI-H647 = test system: NCI-H647
Summary of the method: as §1

NCI-H650 = test system: NCI-H650
Summary of the method: as §1

NCI-H727 = test system: NCI-H727
Summary of the method: as §1

NCI-H838 = test system: NCI-H838
Summary of the method: as §1

Q: What does the source list for `CC1(C)CCC(c2ccc(Cl)cc2)=C(CN2CCN(c3ccc(C(=O)NS(=O)(=O)c4ccc(N[C@H](CCN5CCOCC5)CSc5ccccc5)c(S(=O)(=O)C(F)(F)F)c4)cc3)CC2)C1` [Navitoclax] + CS(=O)(=O)N1CCN(Cc2cc3nc(-c4cccc5[nH]ncc45)nc(N4CCOCC4)c3s2)CC1 [Pictilisib] (partner 1 µM)?
A: relative viability (201T; first compound 0.005 µM): 0.661; relative viability (201T; first compound 0.01581 µM): 0.738; relative viability (201T; first compound 0.05 µM): 0.677; relative viability (201T; first compound 0.1581 µM): 0.65; relative viability (201T; first compound 0.5 µM): 0.707; relative viability (BEN; first compound 0.005 µM): 0.548; relative viability (BEN; first compound 0.01581 µM): 0.678; relative viability (BEN; first compound 0.05 µM): 0.625; relative viability (BEN; first compound 0.1581 µM): 0.602; relative viability (BEN; first compound 0.5 µM): 0.364; relative viability (EMC-BAC-2; first compound 0.005 µM): 0.506; relative viability (EMC-BAC-2; first compound 0.01581 µM): 0.646; relative viability (EMC-BAC-2; first compound 0.05 µM): 0.565; relative viability (EMC-BAC-2; first compound 0.1581 µM): 0.548; relative viability (EMC-BAC-2; first compound 0.5 µM): 0.6; relative viability (HARA; first compound 0.005 µM): 0.389; relative viability (HARA; first compound 0.01581 µM): 0.372; relative viability (HARA; first compound 0.05 µM): 0.384; relative viability (HARA; first compound 0.1581 µM): 0.425; relative viability (HARA; first compound 0.5 µM): 0.381; relative viability (HCC-44; first compound 0.005 µM): 0.656; relative viability (HCC-44; first compound 0.01581 µM): 0.641; relative viability (HCC-44; first compound 0.05 µM): 0.849; relative viability (HCC-44; first compound 0.1581 µM): 0.57; relative viability (HCC-44; first compound 0.5 µM): 0.456; relative viability (LCLC-103H; first compound 0.005 µM): 0.588; relative viability (LCLC-103H; first compound 0.01581 µM): 0.611; relative viability (LCLC-103H; first compound 0.05 µM): 0.664; relative viability (LCLC-103H; first compound 0.1581 µM): 0.611; relative viability (LCLC-103H; first compound 0.5 µM): 0.799; relative viability (LOU-NH91; first compound 0.005 µM): 0.51; relative viability (LOU-NH91; first compound 0.01581 µM): 0.513; relative viability (LOU-NH91; first compound 0.05 µM): 0.556; relative viability (LOU-NH91; first compound 0.1581 µM): 0.496; relative viability (LOU-NH91; first compound 0.5 µM): 0.393; relative viability (NCI-H1395; first compound 0.005 µM): 0.692; relative viability (NCI-H1395; first compound 0.01581 µM): 0.645; relative viability (NCI-H1395; first compound 0.05 µM): 0.563; relative viability (NCI-H1395; first compound 0.1581 µM): 0.818; relative viability (NCI-H1395; first compound 0.5 µM): 0.67; relative viability (NCI-H1666; first compound 0.005 µM): 0.562; relative viability (NCI-H1666; first compound 0.01581 µM): 0.609; relative viability (NCI-H1666; first compound 0.05 µM): 0.503; relative viability (NCI-H1666; first compound 0.1581 µM): 0.394; relative viability (NCI-H1666; first compound 0.5 µM): 0.475; relative viability (NCI-H1993; first compound 0.005 µM): 0.808; relative viability (NCI-H1993; first compound 0.01581 µM): 0.853; relative viability (NCI-H1993; first compound 0.05 µM): 0.803; relative viability (NCI-H1993; first compound 0.1581 µM): 0.792; relative viability (NCI-H1993; first compound 0.5 µM): 0.925; relative viability (NCI-H2009; first compound 0.005 µM): 0.771; relative viability (NCI-H2009; first compound 0.01581 µM): 1.09; relative viability (NCI-H2009; first compound 0.05 µM): 0.961; relative viability (NCI-H2009; first compound 0.1581 µM): 0.898; relative viability (NCI-H2009; first compound 0.5 µM): 0.979; relative viability (NCI-H2023; first compound 0.005 µM): 0.282; relative viability (NCI-H2023; first compound 0.01581 µM): 0.248; relative viability (NCI-H2023; first compound 0.05 µM): 0.22; relative viability (NCI-H2023; first compound 0.1581 µM): 0.263; relative viability (NCI-H2023; first compound 0.5 µM): 0.269; relative viability (NCI-H2087; first compound 0.005 µM): 0.806; relative viability (NCI-H2087; first compound 0.01581 µM): 0.976; relative viability (NCI-H2087; first compound 0.05 µM): 0.54; relative viability (NCI-H2087; first compound 0.1581 µM): 1.02; relative viability (NCI-H2087; first compound 0.5 µM): 0.887; relative viability (NCI-H2126; first compound 0.005 µM): 0.529; relative viability (NCI-H2126; first compound 0.01581 µM): 0.507; relative viability (NCI-H2126; first compound 0.05 µM): 0.493; relative viability (NCI-H2126; first compound 0.1581 µM): 0.49; relative viability (NCI-H2126; first compound 0.5 µM): 0.451; relative viability (NCI-H2347; first compound 0.005 µM): 0.63; relative viability (NCI-H2347; first compound 0.01581 µM): 0.702; relative viability (NCI-H2347; first compound 0.05 µM): 0.649; relative viability (NCI-H2347; first compound 0.1581 µM): 0.395; relative viability (NCI-H2347; first compound 0.5 µM): 0.734; relative viability (NCI-H23; first compound 0.005 µM): 0.479; relative viability (NCI-H23; first compound 0.01581 µM): 0.498; relative viability (NCI-H23; first compound 0.05 µM): 0.483; relative viability (NCI-H23; first compound 0.1581 µM): 0.433; relative viability (NCI-H23; first compound 0.5 µM): 0.504; relative viability (NCI-H3122; first compound 0.005 µM): 0.592; relative viability (NCI-H3122; first compound 0.01581 µM): 0.585; relative viability (NCI-H3122; first compound 0.05 µM): 0.537; relative viability (NCI-H3122; first compound 0.1581 µM): 0.601; relative viability (NCI-H3122; first compound 0.5 µM): 0.55; relative viability (NCI-H441; first compound 0.005 µM): 0.441; relative viability (NCI-H441; first compound 0.01581 µM): 0.606; relative viability (NCI-H441; first compound 0.05 µM): 0.433; relative viability (NCI-H441; first compound 0.1581 µM): 0.529; relative viability (NCI-H441; first compound 0.5 µM): 0.458; relative viability (NCI-H596; first compound 0.005 µM): 0.405; relative viability (NCI-H596; first compound 0.01581 µM): 0.399; relative viability (NCI-H596; first compound 0.05 µM): 0.398; relative viability (NCI-H596; first compound 0.1581 µM): 0.308; relative viability (NCI-H596; first compound 0.5 µM): 0.218; relative viability (NCI-H647; first compound 0.005 µM): 0.539; relative viability (NCI-H647; first compound 0.01581 µM): 0.396; relative viability (NCI-H647; first compound 0.05 µM): 0.385; relative viability (NCI-H647; first compound 0.1581 µM): 0.422; relative viability (NCI-H647; first compound 0.5 µM): 0.453; relative viability (NCI-H650; first compound 0.005 µM): 0.765; relative viability (NCI-H650; first compound 0.01581 µM): 0.948; relative viability (NCI-H650; first compound 0.05 µM): 0.869; relative viability (NCI-H650; first compound 0.1581 µM): 0.972; relative viability (NCI-H650; first compound 0.5 µM): 0.448; relative viability (NCI-H727; first compound 0.005 µM): 0.398; relative viability (NCI-H727; first compound 0.01581 µM): 0.423; relative viability (NCI-H727; first compound 0.1581 µM): 0.33; relative viability (NCI-H727; first compound 0.5 µM): 0.171; relative viability (NCI-H838; first compound 0.005 µM): 0.435; relative viability (NCI-H838; first compound 0.01581 µM): 0.571; relative viability (NCI-H838; first compound 0.05 µM): 0.541; relative viability (NCI-H838; first compound 0.1581 µM): 0.494; relative viability (NCI-H838; first compound 0.5 µM): 0.486
